# In patent publication US6737383B1, “Herbicidal oxadiazolidines” (priority 1999, dated 2004):
# Columns and labels:
# black nightshade = assay: Test E black nightshade; type: in vivo, Solanum nigra; settings: Preemergence
# Russian thistle = assay: Test E Russian thistle; type: in vivo, Salsola kali; settings: Preemergence
# deadnettle = assay: Test E deadnettle; type: in vivo, Lamium amplexicaule; settings: Preemergence
# lambsquarters = assay: Test E lambsquarters; type: in vivo, Chenopodium album; settings: Postemergence
# Protocol: (§1) Compounds evaluated in this test were formulated in a non-phytotoxic solvent mixture which included a surfactant and applied to plants that were in the 1- to 4-leaf stage (postemergence application). A mixture of sandy loam soil and greenhouse potting mix in a 60:40 ratio was used for the postemergence test.
# (§2) Plantings of these crops and weed species were adjusted to produce plants of appropriate size for the postemergence test. All plant species were grown using normal greenhouse practices. Crop and weed species include annual bluegrass (Poa annua), blackgrass (Alopecurus myosuroides), black nightshade (Solanum nigra), chickweed (Stellaria media), common poppy (Papaver rhoeas), deadnettle (Lamium amplexicaule), downy brome (Bromus tectorum), field violet (Viola arvensis), galium (Galium aparine), green foxtail (Setaria viridis), Italian ryegrass (Lolium multiflorum), jointed goatgrass (Aegilops cylindrica), kochia (Kochia scoparia), lambsquarters (Chenopodium album), littleseed canarygrass (Phalaris minor), rape (Brassica napus), redroot pigweed (Amaranthus retroflexus), Russian thistle (Salsola kali), scentless chamomile (Matricaria inodora), spring barley (Hordeum vulgare), sugar beet (Beta vulgaris), sunflower (Helianthus annuus), ivyleaf speedwell (Veronica hederaefolia), spring wheat (Triticum aestivum), winter wheat (Triticum aestivum), wild buckwheat (Polygonum convolvulus), wild mustard (Sinapis arvensis), wild oat (Avena fatua), windgrass (Apera spica-venti) and winter barley (Hordeum vulgare).
# (§3) Treated plants and untreated controls were maintained in a greenhouse for approximately 21 to 28 days, after which all treated plants were compared to untreated controls and visually evaluated. […] A dash response (-) means no test result.
# galium = assay: Test E galium; type: in vivo, Galium aparine; settings: Preemergence
# rape [1] = assay: Test E rape; type: in vivo, Brassica napus; settings: Preemergence
# wild buckwheat = assay: Test E wild buckwheat; type: in vivo, Polygonum convolvulus; settings: Preemergence
# field violet = assay: Test E field violet; type: in vivo, Viola arvensis; settings: Postemergence
# Protocol: as §1, §2, §3
# sunflower = assay: Test E sunflower; type: in vivo, Helianthus annuus; settings: Postemergence
# Protocol: as §2, with “Plantings of these crops and weed species were adjusted to produce plants of appropriate size for the postemergence test.” left out
# as §3
# downy brome = assay: Test E downy brome; type: in vivo, Bromus tectorum; settings: Preemergence
# redroot pigweed = assay: Test E redroot pigweed; type: in vivo, Amaranthus retroflexus; settings: Preemergence
# rape [2] = assay: Test E rape; type: in vivo, Brassica napus; settings: Postemergence
# Protocol: […] A mixture of sandy loam soil and greenhouse potting mix in a 60:40 ratio was used for the postemergence test.
# as §2, §3
# windgrass = assay: Test E windgrass; type: in vivo, Apera spica-venti; settings: Postemergence
# Method in brief: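 Postemergence: spray at 1–4 leaf stage, soil 60:40 sandy loam:potting mix; solvent + surfactant formulation; greenhouse 21–28 d; visual injury vs untreated controls.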
# sourgrass = assay: Test D sourgrass; type: in vivo, Trichachne insularis; settings: Postemergence, 0 to 100 scale
# large crabgrass = assay: Test D large crabgrass; type: in vivo, Digitaria sanguinalis; settings: Postemergence, 0 to 100 scale
# common poppy = assay: Test E common poppy; type: in vivo, Papaver rhoeas; settings: Preemergence
# common pursiane = assay: Test D common purslane; type: in vivo, Portulaca oleracea; settings: Postemergence, 0 to 100 scale
# Green foxtail [3] = assay: Test D green foxtail; type: in vivo; settings: Postemergence, 0 to 100 scale, 0 no injury, 100 complete control
# Green foxtail [4] = assay: Test D green foxtail; type: in vivo; settings: Postemergence, 0 to 100 scale, 0 no injury, 100 complete control; remark: listed apart in the source
# Green foxtail [5] = assay: Test D green foxtail; type: in vivo; settings: Postemergence, 0 to 100 scale
# [6] = Rate 125 g/ha, 0 to 100 scale (0 no effect, 100 complete control)
# [7] = Rate 500 g/ha, 0 to 100 scale where 0 is no effect and 100 is complete control
# [8] = Rate 250 g/ha, 0 to 100 scale (0 no effect, 100 complete control)
# [9] = Rate 500 g/ha, 0 to 100 scale, 0 no effect, 100 complete control
# [10] = Rate 250 g/ha, 0 to 100 scale where 0 is no effect and 100 is complete control
# [11] = Rate 64 g/ha, 0 no injury, 100 complete control
# [12] = Rate 125 g/ha, 0 no injury, 100 complete control
structure (smiles),measurement,setting,value
CC(C)N(C(=O)n1oc(=O)n(C(C)C)c1=O)c1ccc(F)cc1F [Compound 109],"Plant response rating, Blk nightshade",black nightshade; [6],75
same,"Plant response rating, Blk nightshade","black nightshade; Rate 250 g/ha, 0 to 100 scale",90
same,"Plant response rating, Blk nightshade",black nightshade; [7],90
same,"Plant response rating, Russian thistle",Russian thistle; [6],0
same,"Plant response rating, Russian thistle","Russian thistle; Rate 250 g/ha, 0 to 100 scale",0
same,"Plant response rating, Russian thistle",Russian thistle; [7],0
same,"Plant response rating, Deadnettle",deadnettle; [6],20
same,"Plant response rating, Deadnettle","deadnettle; Rate 250 g/ha, 0 to 100 scale",30
same,"Plant response rating, Deadnettle",deadnettle; [7],30
same,Plant response rating Lambsquarters,"lambsquarters; Rate 125 g/ha, 0 to 100 scale",20
same,Plant response rating Lambsquarters,lambsquarters; [8],30
same,Plant response rating Lambsquarters,lambsquarters; [9],30
same,"Plant response rating, Galium",galium; [6],100
same,"Plant response rating, Galium","galium; Rate 250 g/ha, 0 to 100 scale",100
same,"Plant response rating, Galium",galium; [7],100
same,"Plant response rating, Rape",rape [1]; [6],10
same,"Plant response rating, Rape","rape [1]; Rate 250 g/ha, 0 to 100 scale",55
same,"Plant response rating, Rape",rape [1]; [7],65
same,"Plant response rating, Wild buckwheat",wild buckwheat; [6],20
same,"Plant response rating, Wild buckwheat","wild buckwheat; Rate 250 g/ha, 0 to 100 scale",85
same,"Plant response rating, Wild buckwheat",wild buckwheat; [7],90
same,"Plant response rating, Field violet","field violet; Rate 125 g/ha, 0 to 100 scale",10
same,"Plant response rating, Field violet",field violet; [8],20
same,"Plant response rating, Field violet",field violet; [9],40
same,"Plant response rating, Sunflower","sunflower; Rate 125 g/ha, 0 to 100 scale",30
same,"Plant response rating, Sunflower",sunflower; [8],30
same,"Plant response rating, Sunflower",sunflower; [9],40
same,"Plant response rating, Downy brome",downy brome; [6],0
same,"Plant response rating, Downy brome","downy brome; Rate 250 g/ha, 0 to 100 scale",80
same,"Plant response rating, Downy brome",downy brome; [7],60
same,"Plant response rating, Redroot pigweed",redroot pigweed; [6],70
same,"Plant response rating, Redroot pigweed","redroot pigweed; Rate 250 g/ha, 0 to 100 scale",100
same,"Plant response rating, Redroot pigweed",redroot pigweed; [7],100
same,"Plant response rating, Rape","rape [2]; Rate 125 g/ha, 0 to 100 scale",50
same,"Plant response rating, Rape",rape [2]; [8],50
same,"Plant response rating, Rape",rape [2]; [9],60
C=CCn1c(=O)on(C(=O)N(c2ccc(F)cc2)C(C)C)c1=O [Compound 146],"Plant response rating, Blk nightshade",black nightshade; [6],85
same,Blk nightshade plant response rating (0 to 100 scale),black nightshade; Rate 250 g/ha,10
same,"Plant response rating, Blk nightshade",black nightshade; [7],100
same,"Plant response rating, Russian thistle",Russian thistle; [6],0
same,Russian thistle plant response rating (0 to 100 scale),Russian thistle; Rate 250 g/ha,0
same,"Plant response rating, Russian thistle",Russian thistle; [7],10
same,"Plant response rating, Deadnettle",deadnettle; [6],40
same,Deadnettle plant response rating (0 to 100 scale),deadnettle; Rate 250 g/ha,40
same,"Plant response rating, Deadnettle",deadnettle; [7],50
same,"Plant response rating, Windgrass","windgrass; Rate 62 g/ha, 0 to 100 scale",85
same,Windgrass plant response rating,windgrass; [10],95
same,Plant response rating Lambsquarters,"lambsquarters; Rate 62 g/ha, 0 to 100 scale",50
same,Plant response rating Lambsquarters,"lambsquarters; Rate 125 g/ha, 0 to 100 scale",20
same,Plant response rating Lambsquarters,lambsquarters; [9],50
same,Lambsquarters plant response rating,lambsquarters; [10],10
same,"Plant response rating, Galium",galium; [6],40
same,Galium plant response rating (0 to 100 scale),galium; Rate 250 g/ha,50
same,"Plant response rating, Galium",galium; [7],95
same,Sourgrass plant response rating,sourgrass; [11],50
same,"Plant response rating, Sourgrass",sourgrass; [12],50
same,Sourgrass plant response rating,sourgrass; [12],30
same,"Plant response rating, Sourgrass",sourgrass; Rate 250 g/ha,80
same,"Plant response rating, Sourgrass",sourgrass; Rate 500 g/ha,80
same,Plant response rating Large crabgrass,large crabgrass; [11],20
same,Plant response rating Large crabgrass,large crabgrass; [12],20
same,Plant response rating Large crabgrass,large crabgrass; Rate 250 g/ha,50
same,Plant response rating Large crabgrass,large crabgrass; Rate 500 g/ha,65
same,"Plant response rating, Rape",rape [1]; [6],60
same,Rape plant response rating (0 to 100 scale),rape [1]; Rate 250 g/ha,80
same,"Plant response rating, Rape",rape [1]; [7],60
same,"Plant response rating, Wild buckwheat",wild buckwheat; [6],70
same,Wild buckwheat plant response rating (0 to 100 scale),wild buckwheat; Rate 250 g/ha,85
same,"Plant response rating, Wild buckwheat",wild buckwheat; [7],100
same,"Plant response rating, Field violet","field violet; Rate 62 g/ha, 0 to 100 scale",50
same,"Plant response rating, Field violet","field violet; Rate 125 g/ha, 0 to 100 scale",0
same,"Plant response rating, Field violet",field violet; [9],10
same,Field violet plant response rating,field violet; [10],0
same,"Plant response rating, Common poppy",common poppy; [6],100
same,Common poppy plant response rating (0 to 100 scale),common poppy; Rate 250 g/ha,100
same,"Plant response rating, Common poppy",common poppy; [7],100
same,"Plant response rating, C. purslane",common pursiane; [11],0
same,"Plant response rating, C. purslane",common pursiane; [12],0
same,"Plant response rating, C. purslane",common pursiane; Rate 250 g/ha,20
same,"Plant response rating, C. purslane",common pursiane; Rate 500 g/ha,20
same,"Plant response rating, Sunflower","sunflower; Rate 62 g/ha, 0 to 100 scale",0
same,"Plant response rating, Sunflower","sunflower; Rate 125 g/ha, 0 to 100 scale",40
same,"Plant response rating, Sunflower",sunflower; [9],50
same,Sunflower plant response rating,sunflower; [10],40
same,"Plant response rating, Downy brome",downy brome; [6],60
same,Downy brome plant response rating (0 to 100 scale),downy brome; Rate 250 g/ha,0
same,"Plant response rating, Downy brome",downy brome; [7],60
same,"Plant response rating, Redroot pigweed",redroot pigweed; [6],70
same,Redroot pigweed plant response rating (0 to 100 scale),redroot pigweed; Rate 250 g/ha,100
same,"Plant response rating, Redroot pigweed",redroot pigweed; [7],100
same,"Plant response rating, Rape","rape [2]; Rate 62 g/ha, 0 to 100 scale",60
same,"Plant response rating, Rape","rape [2]; Rate 125 g/ha, 0 to 100 scale",40
same,"Plant response rating, Rape",rape [2]; [9],60
same,Rape plant response rating,rape [2]; [10],50
CC(C)N(C(=O)n1oc(=O)n(C2CC2)c1=O)c1ccc(F)cc1F [Compound 299],Green foxtail plant response rating,Green foxtail [3]; Rate 64 g/ha,100
same,Green foxtail plant response rating,Green foxtail [3]; Rate 125 g/ha,100
same,Plant response rating Large crabgrass,large crabgrass; [11],100
same,Plant response rating Large crabgrass,large crabgrass; [12],100
same,Plant response rating Large crabgrass,large crabgrass; Rate 250 g/ha,100
same,Plant response rating Large crabgrass,large crabgrass; Rate 500 g/ha,100
same,"Plant response rating, Green foxtail",Green foxtail [4]; Rate 64 g/ha,100
same,"Plant response rating, Green foxtail",Green foxtail [4]; Rate 125 g/ha,100
same,"Plant response rating, C. purslane",common pursiane; [11],0
same,"Plant response rating, C. purslane",common pursiane; [12],0
same,"Plant response rating, C. purslane",common pursiane; Rate 250 g/ha,0
same,"Plant response rating, C. purslane",common pursiane; Rate 500 g/ha,0
same,"Plant response rating, Green foxtail",Green foxtail [5]; Rate 250 g/ha,100
same,"Plant response rating, Green foxtail",Green foxtail [5]; Rate 500 g/ha,100
